# Values of other authors in patent US20080152704A1, “Dosage Forms of Palonosetron Hydrochloride Having Improved Stability and Bioavailability” (priority 2006, published 2008).
# Experiments:
# [1] = biological target: T1, 5-HT3 receptor (Homo sapiens, UniProt P46098)
# T1 sequence (P46098 24-478): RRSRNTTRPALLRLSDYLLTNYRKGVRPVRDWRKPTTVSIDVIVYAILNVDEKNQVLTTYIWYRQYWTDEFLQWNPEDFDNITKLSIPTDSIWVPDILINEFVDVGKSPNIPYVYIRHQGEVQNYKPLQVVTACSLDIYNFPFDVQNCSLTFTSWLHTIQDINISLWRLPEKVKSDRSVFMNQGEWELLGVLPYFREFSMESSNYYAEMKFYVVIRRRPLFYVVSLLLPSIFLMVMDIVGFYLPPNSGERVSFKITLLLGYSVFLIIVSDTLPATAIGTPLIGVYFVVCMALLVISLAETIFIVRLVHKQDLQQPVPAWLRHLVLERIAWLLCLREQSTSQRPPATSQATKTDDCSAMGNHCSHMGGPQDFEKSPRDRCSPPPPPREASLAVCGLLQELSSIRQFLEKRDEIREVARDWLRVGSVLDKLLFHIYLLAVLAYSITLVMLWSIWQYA
# [2] = test system: dopamine receptors
smiles,measurement,setting,value
"Cl.O=C1c2cccc3c2[C@H](CCC3)CN1[C@@H]1CN2CCC1CC2 [Palonosetron, (3aS)-2-[(S)-1-Azabicyclo [2.2.2]oct-3-yl]-2,3,3a,4,5,6-hexahydro-1-oxo-1Hbenz[de] isoquinoline hydrochloride]",affinity as an antagonist for the 5-HT3 receptor,[1],high affinity
same,affinity for other receptors such as dopamine receptors,[2],low affinity
